Measured values reported in patent publication US9211350B2, “Compound with amyloid affinity” (priority 2011, dated 2015).

Legend:
[1] = tested on: amyloid in brain of AD patients; assay: Autoradiography of brain slice of AD patients; assay type: binding, human; conditions: 5 μm brain slice of AD patients, 10 kBq/mL, compared with immunostaining by anti-amyloid antibody
Experimental: The following experiment was carried out in order to examine whether the compound of the present invention can image amyloid in brain of AD patients.
• (1) A 5 μm thick brain slice of AD patients was prepared from a brain tissue of AD patients available from Analytical Biological Services Inc. (United States). • (2) The brain slice prepared for each test substance was immersed in PBS 3 times in total: 15 minutes, 5 minutes and 5 minutes in this order. Next, it was immersed in a 1% BSA-containing PBS for 30 minutes to conduct hydrophilization. As the test substance, a 1% BSA-containing PBS containing each of Compound 1, Compound 2, Compound 3, Compound 4, Compound 5 and [^123I]-IMPY (radioactive concentration: 10 kBq/mL) was prepared and used. The above hydrophilized brain slice was immersed at room temperature in each of the test substance solutions. Then, it was immersed in a 1% BSA-containing PBS for 5 minutes, next in a PBS for 5 minutes and further in a PBS for 5 minutes to wash the brain slices. The washed brain slice was sufficiently dried, and then exposed to an imaging plate for 16 hours, and then autoradiogram image analysis was carried out by use of a Bio-imaging Analyzer (type: BAS-2500; manufactured by FUJIFILM Corporation) (FIG. 7, FIG. 8, FIG. 9, FIG. 10, FIG. 11, FIG. 12). • (3) Separately, immunostaining at a site of amyloid deposition with an anti-amyloid antibody was carried out using adjacent slices which were subjected to hydrophilization in accordance with the same procedures as the above. Anti-Human Amyloidβ(N) (82E1) Mouse IgG MoAb (Immuno-Biological Laboratories Co., Ltd.) was used as the anti-amyloid antibody, and Anti-Mouse IgG (H+L) Goat IgG Fab′-HRP (Immuno-Biological Laboratories Co., Ltd.) was used as a secondary antibody. The site of amyloid deposition was detected by applying the DAB+(3,3′-diaminobenzidinetetrahydrochloride) substrate kit (Dako) to HRP attached to the secondary antibody (FIG. 13). Results

[2] = Measurement of partition coefficient based on the octanol extraction method; assay type: physicochemical; conditions: 1-octanol/water; average of 200 μL, 400 μL and 800 μL samples
Experimental: Partition coefficients based on the octanol extraction method (hereinafter referred to as log Poctanol) were measured, which are generally known as an indicator of permeability of compounds through the blood-brain barrier (hereinafter referred to as BBB).
Compound 1, Compound 2, Compound 3 and Compound 4 were adjusted to about 1 MBq/mL respectively using a water saturated 1-octanol solution to obtain sample solutions. Each sample solution in an amount of 30 μL was added to three microtubes. The three microtubes to which each sample solution was added were supplemented with both water saturated 1-octanol and 1-octanol saturated water so as to make the volume to be 200 μL, 400 μL or 800 μL, respectively (referred to as 200 μL sample, 400 μL sample and 800 μL sample, respectively). Each microtube was subjected to stirring, and then was shaken for 5 minutes (20 to 25±2° C., 20 rpm/min). Next, the mixture in each microtube was centrifuged (23° C., 3000 g×20 min.) with a centrifuge (type: T2-MC, manufactured by BECKMAN), and then 50 μL each of the octanol layer and the water layer was obtained, and subjected to measurement of radioactivity with an Autowell Gamma system (Type: ARC-7001, manufactured by Aloka). Using the obtained count, log Poctanol was calculated in accordance with the following equation (1). Meanwhile, the value of log Poctanol was an average value of the values which were respectively calculated for the 200 μL sample, the 400 μL sample and the 800 μL sample.

[3] = Measurement of transferability into brain and clearance (radioactive accumulation in brain); conditions: rats; for Radioactive accumulation per unit weight (% ID/g) in brain, After 2 min. / Radioactive accumulation per unit weight (% ID/g) in brain, After 60 min.: intravenous injection (tail vein); for Radioactive accumulation per unit weight (% ID/g) in brain, After 2 min.: 2 minutes after the injection; for Radioactive accumulation per unit weight (% ID/g) in brain, After 60 min.: 60 minutes after the injection; for Transferability to brain and clearance from brain (in words): intravenous injection, 2 and 60 minutes
Experimental: Using Compound 1, Compound 2, Compound 3, Compound 4 and Compound 5, radioactive accumulation in brain of male Wistar rats (8-week old) was measured.
A solution in which Compound 1, Compound 2, Compound 4 and Compound 5 were respectively dissolved in a physiological saline solution containing 50 mmol/L of L-cysteine hydrochloride was prepared, to obtain a sample solution (radioactive concentration: all 37 MBq/mL). A solution in which Compound 3 was dissolved in a physiological saline solution containing 10% ethanol and 50 mmol/L of L-cysteine hydrochloride was prepared, to obtain a sample solution (radioactive concentration: 37 MBq/mL). The sample solution was injected under non-anesthesia into the tail vein of male Wistar rats (8-week old) (dosage: 0.2 mL, dosed radioactivity: 7.4 MBq equivalent). The rats were sacrificed by decapitating under non-anesthesia to sample bloods and brains 2 and 60 minutes after the injection. Brains were subjected to measurement of mass of brains and further subjected to measurement of radioactivity (hereinafter referred to as A in this Example) with a single channel analyzer (detector type: SP-20 manufactured by OHYO KOKEN KOGYO Co., Ltd.). Further, the radioactivity level of the rest of the whole body including blood was measured in the same manner as above (hereinafter referred to as B in this Example). Using these measurement results, the amount of radioactive accumulation per unit weight of brain (% ID/g) at the respective time points after the dissection were calculated in accordance with the following formula (2).
The same procedure as the above was carried out to calculate the amount of radioactive accumulation per unit weight of brain (% ID/g) at the respective time points after the dissection.
Meanwhile, in this Example, three animals were used for the experiment at the respective time points.

amyloid aggregates = assay: In vitro binding test with gray matter and white matter homogenate of brain of AD patients; design: species or system human; conditions: for Radioactive amount attached to brain tissue of AD patients (%), Gray matter: brain gray matter homogenate of AD patients (amyloid deposition); for Radioactive amount attached to brain tissue of AD patients (%), Gray matter / Radioactive amount attached to brain tissue of AD patients (%), White matter: 100 μg protein/mL, 3 hours, 22° C., relative to added radioactivity; for Radioactive amount attached to brain tissue of AD patients (%), White matter: brain white matter homogenate of AD patients (no amyloid); for Binding property to amyloid deposited in the brain (in words): gray matter versus white matter homogenate of AD patients
Experimental: Binding properties to amyloid aggregates of Compound 1, Compound 3, Compound 4, Compound 5 and [^123I]-IMPY were evaluated by the following in vitro binding test.
The assay was conducted using a gray matter homogenate of brain of AD patients and a white matter homogenate of brain of AD patients, which were prepared from a brain tissue (Frontal lobe) of AD patients commercially available from Analytical Biological Services Inc. (United States).
To each well of a 96-well microplate, 150 μL of a 0.1% BSA-containing 5 mmol/L phosphate buffer saline solution and 50 μL of a sample solution prepared above were added. Two wells were afforded to each sample solution. Of the two wells in which each sample solution was added, one received 50 μL of the brain grey matter homogenate of AD patients, and the other received 50 μL of the brain white matter homogenate of AD patients (final concentration: 100 μg protein/mL), so that the reaction was initiated. After the reaction solution was shaken for 3 hours (22° C., 400 rpm), a glass fiber filter (Multiscreen HTS FB, manufactured by Millipore) was used to filter the reaction solution. The filtrated filter was washed with a 0.1% BSA-containing 5 mmol/L phosphate buffer saline solution (200 μL, 3 times), and then radioactivity remained in the filter was measured with an Autowell Gammma system (type: ARC-7001, manufactured by Aloka). The ratio (%) of the radioactivity attached to the brain grey matter homogenate of AD patients or the brain white matter homogenate of AD patients relative to the added-radioactivity was calculated from the resulting count. Meanwhile, the above was repeated 3 times.

Compound | Binding to the site of amyloid deposition on autoradiogram (in words) [1] | logPoctanol value [2] | Radioactive accumulation per unit weight (% ID/g) in brain, After 2 min. [3] [% ID/g] | Radioactive accumulation per unit weight (% ID/g) in brain, After 60 min. [3] [% ID/g] | Transferability to brain and clearance from brain (in words) [3] | Radioactive amount attached to brain tissue of AD patients (%), Gray matter (amyloid aggregates) [%] | Radioactive amount attached to brain tissue of AD patients (%), White matter (amyloid aggregates) [%] | Binding property to amyloid deposited in the brain (in words) (amyloid aggregates)
[^123I]-6-iodo-2-[2-(2H-1,2,3-triazole-2-yl)pyridine-5-yl]imidazo[1,2-a]pyridine [Compound 2] | binding of the compounds to the site of amyloid deposition confirmed by immunostaining was also be confirmed | 2.05 | 1.160 | 0.027 | excellent transferability to brain and rapid clearance from brain | – | – | –
[^123I]-6-iodo-2-[2-(1H-imidazole-1-yl)pyridine-5-yl]imidazo[1,2-a]pyridine [Compound 3] | binding of the compounds to the site of amyloid deposition confirmed by immunostaining was also be confirmed | 1.91 | 1.186 | 0.246 | excellent transferability to brain and rapid clearance from brain | 2.00 | 0.83 | have a binding property to amyloid deposited in the brain
[123I]c1ccc2nc(-c3ccc(-n4ccnn4)nc3)cn2c1 [Compound 1, [^123I]-6-iodo-2-[2-(1H-1,2,3-triazole-1-yl)pyridine-5-yl]imidazo[1,2-a]pyridine] | binding of the compounds to the site of amyloid deposition confirmed by immunostaining was also be confirmed | 2.10 | 1.226 | 0.028 | excellent transferability to brain and rapid clearance from brain | 2.59 | 0.48 | have a binding property to amyloid deposited in the brain
CN(C)c1ccc(-c2cn3cc(I)ccc3n2)cc1 [[^123I]-IMPY, 6-iodo-2-[4′-(N,N-dimethylamino)phenyl]imidazo[1,2-a]pyridine, reference compound] | binding of the compounds to the site of amyloid deposition confirmed by immunostaining was also be confirmed | – | 1.644 | 0.085 | – | 1.97 | 0.77 | –
[^123I]-6-iodo-2-[2-(1H-1,2,4-triazole-1-yl)pyridine-5-yl]imidazo[1,2-a]pyridine [Compound 4] | binding of the compounds to the site of amyloid deposition confirmed by immunostaining was also be confirmed | 2.23 | 1.287 | 0.056 | excellent transferability to brain and rapid clearance from brain | 1.13 | 0.17 | have a binding property to amyloid deposited in the brain
[^123I]-6-iodo-2-[2-(pyrazole-1-yl)pyridine-5-yl]imidazo[1,2-a]pyridine [Compound 5] | binding of the compounds to the site of amyloid deposition confirmed by immunostaining was also be confirmed | – | 1.500 | 0.079 | excellent transferability to brain and rapid clearance from brain | 2.41 | 0.77 | have a binding property to amyloid deposited in the brain
